These results are taken from ChEMBL document CHEMBL1201862, “PubChem BioAssay data set” (2004).

Activity calls are given as the source filed them.

As usually defined, the CC50 is the concentration that lowers cell viability or growth by half. What is called AC50 is the concentration giving half of the maximal activity seen. What is called IC50 is the midpoint of a concentration-inhibition curve. The EC50 is the concentration that produces a half-maximal response.

Assay [1] is described as follows: HEp-2 cell cytotoxicity, dose response, cytotoxicity control for RSV inhibitor project, HTS (AID 2410). It counts as functional. The settings on record: human respiratory syncytial virus.
Assay [2] deals with HeLa. As to the kind of experiment: HeLa cell cytotoxicity, dose response, cytotoxicity control for MITF activator project, CellTiter-Glo luminescence, cherry-pick samples (AID 540259). In kind it is functional, cell-based. The settings on record: Homo sapiens. (In general: Cellular ATP, detected with luciferase, serves as a proxy for viable cell number.)
Assay [3] can be described thus: mammalian cell cytotoxicity, dose response, cytotoxicity control, plate reader, cherry-pick samples (AID 504397). It counts as functional, cell-based.
Assay [4] deals with T1, G-protein coupled receptor 35 (Homo sapiens, UniProt Q9HC97). As to the kind of experiment: SAR analysis of Antagonists of the GPR35 Receptor using an Image-Based Assay - Set 3. [Related pubchem assays (depositor defined):AID2013, AID2026]. In kind it is functional.
T1 sequence (Q9HC97 whole entry): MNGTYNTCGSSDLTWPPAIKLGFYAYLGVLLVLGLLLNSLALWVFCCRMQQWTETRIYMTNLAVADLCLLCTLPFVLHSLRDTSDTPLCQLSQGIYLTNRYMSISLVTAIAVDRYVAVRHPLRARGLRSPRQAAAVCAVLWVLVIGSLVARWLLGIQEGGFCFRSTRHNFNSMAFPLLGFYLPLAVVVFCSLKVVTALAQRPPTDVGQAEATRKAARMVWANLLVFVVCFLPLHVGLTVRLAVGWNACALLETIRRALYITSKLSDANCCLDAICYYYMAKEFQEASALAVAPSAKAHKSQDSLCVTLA
Assay [5] deals with T2, Cannabinoid receptor 1 (Homo sapiens, UniProt P21554). As to the kind of experiment: SAR analysis of antagonists of the Cannabinoid Receptor 1 using an Image-Based Assay - Set 2. [Related pubchem assays (depositor defined):AID2013, AID2026]. In kind it is functional.
T2 sequence (P21554 whole entry): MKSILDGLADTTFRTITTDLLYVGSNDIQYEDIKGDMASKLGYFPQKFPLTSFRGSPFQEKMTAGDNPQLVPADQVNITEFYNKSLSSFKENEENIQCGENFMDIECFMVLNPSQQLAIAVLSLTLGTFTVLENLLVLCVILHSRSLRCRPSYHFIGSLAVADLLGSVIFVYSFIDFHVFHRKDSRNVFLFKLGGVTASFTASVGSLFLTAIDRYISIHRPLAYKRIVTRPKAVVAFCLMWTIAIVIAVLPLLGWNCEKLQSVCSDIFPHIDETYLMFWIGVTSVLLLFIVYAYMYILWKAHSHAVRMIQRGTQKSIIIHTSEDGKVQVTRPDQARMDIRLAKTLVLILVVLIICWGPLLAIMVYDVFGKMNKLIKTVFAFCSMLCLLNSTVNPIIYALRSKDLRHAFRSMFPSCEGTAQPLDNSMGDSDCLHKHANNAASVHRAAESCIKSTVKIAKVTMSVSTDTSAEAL
The target in assay [6] is T3, G-protein coupled receptor 55 (Homo sapiens, UniProt Q9Y2T6). As to the kind of experiment: GPR55 antagonist potency of analogs, SAR follow-up, imaging, U2OS, beta-arrestin-GFP, LPI agonist, set 2 (AID 2820). In kind it is functional.
T3 sequence (Q9Y2T6 whole entry): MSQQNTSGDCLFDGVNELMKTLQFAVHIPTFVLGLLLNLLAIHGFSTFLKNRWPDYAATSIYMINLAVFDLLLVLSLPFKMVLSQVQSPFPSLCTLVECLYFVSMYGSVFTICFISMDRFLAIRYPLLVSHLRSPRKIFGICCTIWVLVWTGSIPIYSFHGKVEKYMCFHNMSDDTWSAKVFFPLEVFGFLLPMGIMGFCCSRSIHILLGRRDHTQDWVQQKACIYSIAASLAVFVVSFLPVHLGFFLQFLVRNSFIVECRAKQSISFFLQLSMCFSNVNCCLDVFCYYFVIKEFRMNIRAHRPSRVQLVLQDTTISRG
For assay [7], the target named is T4, Cannabinoid receptor 2 (Homo sapiens, UniProt P34972). As to the kind of experiment: SAR analysis of agonists of the Cannabinoid Receptor 2 using an Image-Based Assay. [Related pubchem assays (depositor defined):AID2013, AID2026]. It counts as functional.
T4 sequence (P34972 whole entry): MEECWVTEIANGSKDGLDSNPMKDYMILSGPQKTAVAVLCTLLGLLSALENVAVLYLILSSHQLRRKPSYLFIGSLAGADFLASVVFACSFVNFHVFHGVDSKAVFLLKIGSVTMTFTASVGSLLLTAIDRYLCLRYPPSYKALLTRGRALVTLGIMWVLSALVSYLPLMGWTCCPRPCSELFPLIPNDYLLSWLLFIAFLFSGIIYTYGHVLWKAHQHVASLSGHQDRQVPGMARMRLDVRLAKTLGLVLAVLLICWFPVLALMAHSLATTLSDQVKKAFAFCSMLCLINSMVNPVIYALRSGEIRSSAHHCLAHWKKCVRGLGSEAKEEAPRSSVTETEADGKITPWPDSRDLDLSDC
Assay [8] deals with T4, Cannabinoid receptor 2. Nature of the assay: SAR analysis of antagonists of the Cannabinoid Receptor 2 using an Image-Based Assay. [Related pubchem assays (depositor defined):AID2013, AID2026]. It counts as functional.
Assay [9] has as its target T1, G-protein coupled receptor 35. Nature of the assay: SAR analysis of Agonists of the GPR35 Receptor using an Image-Based Assay - Set 2. [Related pubchem assays (depositor defined):AID2013, AID2026]. In kind it is functional.
Assay [10] deals with T2, Cannabinoid receptor 1. Nature of the assay: SAR analysis of agonists of the Cannabinoid Receptor 1 using an Image-Based Assay - Set 2. [Related pubchem assays (depositor defined):AID2013, AID2026]. It counts as functional.
In assay [11] the target is T3, G-protein coupled receptor 55. Nature of the assay: GPR55 antagonists blocking LPI-driven arrestin recruitment, primary screen, imaging, U2OS, beta-arrestin-GFP, LPI agonist (AID 2013).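 Note: antagonist potency measured as reduced agonist-driven arrestin aggregation.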 It counts as functional. (Recruitment of arrestin is a read-out of receptor activation apart from second messengers.)
Assay [12] deals with T5, Tyrosine-protein phosphatase non-receptor type 22 (Homo sapiens, UniProt Q9Y2R2).
T5 sequence (Q9Y2R2 whole entry): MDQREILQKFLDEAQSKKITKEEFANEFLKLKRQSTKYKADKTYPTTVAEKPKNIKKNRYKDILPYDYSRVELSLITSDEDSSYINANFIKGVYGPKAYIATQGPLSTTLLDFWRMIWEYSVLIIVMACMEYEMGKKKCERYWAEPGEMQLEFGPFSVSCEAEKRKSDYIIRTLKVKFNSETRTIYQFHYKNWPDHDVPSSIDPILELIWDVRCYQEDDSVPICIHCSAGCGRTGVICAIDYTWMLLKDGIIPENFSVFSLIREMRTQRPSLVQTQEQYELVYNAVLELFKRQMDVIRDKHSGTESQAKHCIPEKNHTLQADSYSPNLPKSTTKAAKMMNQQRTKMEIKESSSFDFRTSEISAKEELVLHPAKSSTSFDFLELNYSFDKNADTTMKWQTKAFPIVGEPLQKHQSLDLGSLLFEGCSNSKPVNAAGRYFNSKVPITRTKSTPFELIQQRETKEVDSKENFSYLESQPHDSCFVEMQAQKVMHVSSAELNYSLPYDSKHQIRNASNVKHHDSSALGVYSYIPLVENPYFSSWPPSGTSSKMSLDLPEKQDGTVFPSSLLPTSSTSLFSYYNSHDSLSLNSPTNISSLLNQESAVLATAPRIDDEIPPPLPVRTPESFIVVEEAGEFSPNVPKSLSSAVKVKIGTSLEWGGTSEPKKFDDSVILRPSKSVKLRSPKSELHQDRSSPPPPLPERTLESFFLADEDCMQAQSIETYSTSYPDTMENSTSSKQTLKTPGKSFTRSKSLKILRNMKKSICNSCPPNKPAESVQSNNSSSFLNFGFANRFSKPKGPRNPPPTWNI
Nature of the assay: LYP1 Fluorescent Assay using OMFP substrate for In Vitro dose response studies. [Related pubchem assays (depositor defined):AID1779, AID1784, AID435024].

The target in assay [13] is T6, Tyrosine-protein phosphatase non-receptor type 7 (Homo sapiens, UniProt P35236).
T6 sequence (P35236 whole entry): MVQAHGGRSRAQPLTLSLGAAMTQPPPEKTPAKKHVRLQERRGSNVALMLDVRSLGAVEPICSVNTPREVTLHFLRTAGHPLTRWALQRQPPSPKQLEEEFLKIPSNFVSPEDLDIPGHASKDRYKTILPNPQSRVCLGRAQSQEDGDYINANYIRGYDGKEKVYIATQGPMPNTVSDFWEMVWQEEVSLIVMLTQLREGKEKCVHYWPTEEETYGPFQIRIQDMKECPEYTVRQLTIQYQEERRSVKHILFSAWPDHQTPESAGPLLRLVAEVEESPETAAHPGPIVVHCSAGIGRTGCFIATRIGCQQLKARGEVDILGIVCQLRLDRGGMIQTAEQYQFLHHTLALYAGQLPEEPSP
In kind it is functional.

Assay [14] has as its target T5, Tyrosine-protein phosphatase non-receptor type 22. In kind it is functional.
For assay [15] the target is unchanged. Nature of the assay: inhibitors of LYP phosphatase, biochemical, fluorescence intensity, uHTS (AID 1779).
Assay [16] shares this target. It counts as functional. This is another data set of the same source.
Assay [17] addresses T6, Tyrosine-protein phosphatase non-receptor type 7. Nature of the assay: HTS HePTP Fluorescent Assay using OMFP substrate for In Vitro dose response studies. [Related pubchem assays (depositor defined):AID1059, AID1077, AID1784, AID2068, AID2085, AID435032, AID521]. In kind it is functional.
The target of assay [18] is Sphingosine 1-phosphate receptor 4 (Homo sapiens, UniProt O95977). Nature of the assay: Fluorescence dose response cell-based high throughput screening assay for agonists of the Sphingosine 1-Phosphate Receptor 4 (S1P4). [Related pubchem assays: 1509 (Primary screen.), 1523 (Confirmation screen in triplicates.)]. In kind it is functional.
Sequence of Sphingosine 1-phosphate receptor 4 (O95977 whole entry): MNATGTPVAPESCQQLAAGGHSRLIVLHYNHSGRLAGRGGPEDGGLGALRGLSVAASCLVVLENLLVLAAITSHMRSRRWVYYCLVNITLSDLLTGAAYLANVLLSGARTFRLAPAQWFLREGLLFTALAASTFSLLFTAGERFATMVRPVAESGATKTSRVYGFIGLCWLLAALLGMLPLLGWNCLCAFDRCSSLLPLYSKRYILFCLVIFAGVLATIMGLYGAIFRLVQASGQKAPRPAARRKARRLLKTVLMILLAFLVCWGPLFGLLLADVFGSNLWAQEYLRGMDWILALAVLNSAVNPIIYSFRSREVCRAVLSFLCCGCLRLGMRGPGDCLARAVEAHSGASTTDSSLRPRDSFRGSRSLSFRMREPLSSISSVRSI
The target in assay [19] is Sphingosine 1-phosphate receptor 1 (Homo sapiens, UniProt P21453). As to the kind of experiment: Fluorescence-based counterscreen assay for S1P4 agonists: Cell-based dose response high throughput screening assay to identify agonists of the Sphingosine 1-Phosphate Receptor 1 (S1P1). [Related pubchem assays (depositor defined):AID1509, AID1523, AID1801, AID463107, AID463118, AID463119, AID463122, AID463123, AID463129, AID463225, AID504400, AID504460]. It counts as functional. In general terms: The purpose of a counterscreen is to sort out artefacts and off-target activity.
Sequence of Sphingosine 1-phosphate receptor 1 (P21453 whole entry): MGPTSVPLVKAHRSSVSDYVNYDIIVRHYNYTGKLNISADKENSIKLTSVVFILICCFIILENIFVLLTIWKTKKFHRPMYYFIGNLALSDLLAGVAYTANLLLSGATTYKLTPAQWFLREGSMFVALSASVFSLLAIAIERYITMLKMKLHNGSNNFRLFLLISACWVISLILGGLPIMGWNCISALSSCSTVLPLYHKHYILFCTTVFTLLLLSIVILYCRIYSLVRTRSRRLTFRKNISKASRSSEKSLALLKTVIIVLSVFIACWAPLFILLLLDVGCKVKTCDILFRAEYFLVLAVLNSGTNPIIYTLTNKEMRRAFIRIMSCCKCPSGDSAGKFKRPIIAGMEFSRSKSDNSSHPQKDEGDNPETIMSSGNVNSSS

The target in assay [20] is Kappa-type opioid receptor (Homo sapiens, UniProt P41145). As to the kind of experiment: SAR analysis of small molecule agonists of the kappa opioid receptor via a luminescent beta-arrestin assay - Set 3. [Related pubchem assays (depositor defined):AID1777, AID1785, AID1786, AID1966, AID2133, AID2136, AID2284, AID2500]. It counts as functional.
Sequence of Kappa-type opioid receptor (P41145 whole entry): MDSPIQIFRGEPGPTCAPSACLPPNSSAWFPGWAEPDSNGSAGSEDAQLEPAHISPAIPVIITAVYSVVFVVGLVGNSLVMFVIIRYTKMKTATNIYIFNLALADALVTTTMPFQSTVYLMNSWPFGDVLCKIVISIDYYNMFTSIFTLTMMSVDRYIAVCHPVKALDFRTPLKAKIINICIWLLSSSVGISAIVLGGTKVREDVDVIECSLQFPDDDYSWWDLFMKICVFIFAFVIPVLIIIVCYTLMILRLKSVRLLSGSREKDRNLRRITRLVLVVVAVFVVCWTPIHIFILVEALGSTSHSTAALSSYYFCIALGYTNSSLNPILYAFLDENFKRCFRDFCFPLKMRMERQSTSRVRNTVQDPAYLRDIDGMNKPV

Consider `COc1cccc2sc3ccc(C#CC4(O)CCCCC4)cc3c(=O)c12`, for which the CC50 in assay [1] was 13.9 µM (active). Further, the AC50 in [2] was 39.6 µM (active); in [3], 85.7 µM (active).

For `COC(=O)C1=C(N)c2ccccc2C1(C#N)c1ccccc1` (stereo not given), the IC50 in assay [4] was > 32 µM (inactive); in [5] it was > 32 µM (inactive); in assay [6], 2.36 µM (active); in assay [8] it was > 32 µM (inactive); in assay [11] it was 1.76 µM (active). Moreover, the EC50 in assay [7], in [9] and in assay [10] was > 32 µM (inactive) throughout.

For the compound `O=C(N/N=C/c1ccc2c(c1)OCO2)c1cc(-c2ccncc2)nc2ccccc12`, the IC50 was > 99 µM (inactive) in assay [12]; > 79.4 µM (inactive) in assay [13]; > 79.4 µM (inactive) in assay [14]; > 99 µM (inactive) in assay [15]; > 79.4 µM (inactive) in assay [16]; > 99 µM (inactive) in assay [17].

On to `Cn1c(-c2cc3ccc(OC(=O)C(C)(C)C)cc3oc2=O)nc2ccccc21`, for which the 50% effective concentration (EC50) in [18] was 37 µM (not active); in assay [19] it was 33.5 µM (inactive).

With `FC(F)(F)c1cc(CSc2nnc(-c3ccc(Br)cc3)n2Cc2ccco2)ccc1Cl`, in [20], the EC50 was 11 µM (inactive).
